# Source: US7482347B2, “Piperazine derivatives with CCR-3 inhibiting activity” (priority 2004, dated 2009)
# Biological target: T1, human CCR-3 (Homo sapiens, UniProt P51677)
# T1 construct: expressed in transfected cells; membranes prepared
# T1 sequence (P51677 1-355): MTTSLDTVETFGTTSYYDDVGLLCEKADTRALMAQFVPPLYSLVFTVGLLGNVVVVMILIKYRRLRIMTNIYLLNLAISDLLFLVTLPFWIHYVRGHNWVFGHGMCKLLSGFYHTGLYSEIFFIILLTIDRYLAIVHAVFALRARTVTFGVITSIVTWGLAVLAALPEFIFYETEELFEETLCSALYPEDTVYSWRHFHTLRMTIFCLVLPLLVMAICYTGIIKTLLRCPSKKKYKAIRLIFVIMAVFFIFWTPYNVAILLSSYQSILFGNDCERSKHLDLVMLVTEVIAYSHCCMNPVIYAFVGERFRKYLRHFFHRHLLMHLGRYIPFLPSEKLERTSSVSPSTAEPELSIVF
# Test: [125I]-human eotaxin binding SPA assay on membranes of RBL-2H3 cells stably expressing CCR3
# Details: membranes of RBL-2H3 cells expressing CCR3, 50 pM [125I]-human eotaxin, 4 hours at room temperature, read-out: IC50 (inhibition of binding of [125I]-human eotaxin to CCR-3)
# Excerpt: Recombinant cells expressing human CCR-3 are captured by wheatgerm agglutinin (WGA) polyvinyltoluidene (PVT) SPA beads (available from Amersham), through a specific interaction between the WGA and carbohydrate residues of glycoproteins on the surface of the cells. [^125I]-human eotaxin (available from Amersham) binds specifically to CCR-3 receptors bringing the [^125I]-human eotaxin in close proximity to the SPA beads. Emitted â-particles from the [^125I]-human eotaxin excite, by its proximity, the fluorophore in the beads and produce light.
# Preparation of Assay Buffer: 5.96 g HEPES and 7.0 g sodium chloride are dissolved in distilled water and 1 M aqueous CaCl2 (1 ml) and 1M aqueous MgCl2 (5 ml) are added. The pH is adjusted to 7.6 with NaOH and the solution made to a final volume of 1 l using distilled water. 5 g bovine serum albumin and 0.1 g sodium azide are then dissolved in the solution and the resulting buffer stored at 4° C. A COMPLETE™ protease inhibitor cocktail tablet (available from Boehringer) is added per 50 ml of the buffer on the day of use. […]
# The assay is performed in a final volume of 250 μl per well of an OPTIPLATE™ microplate (ex Canberra Packard). […] The resulting scintillations are counted using a Canberra Packard TopCount, each well being counted for 1 minute. […]
row,SMILES,IC50 [µM]
1,"Cc1noc(C)c1S(=O)(=O)N1CCC(CN2CCN(Cc3ccc(F)cc3)CC2)CC1 [Example 1, 1-[1-(3,5-Dimethylisoxazole-4-sulfonyl)-piperdin-4-yl-methyl]-4-(4-fluorobenzyl)-piperazine]",0.257
2,"COc1ccc(OC)c(S(=O)(=O)N2CCC(CN3CCN(Cc4ccc(F)cc4)CC3)CC2)c1 [Example 3, 1-[1-(2,5-dimethoxybenzenesulfonyl)piperidinyl-4-ylmethyl]-4-(4-fluorobenzyl)piperazine]",0.056
